Laboratory results taken from paper PMC8699473, “An Easily Expandable Multi-Drug LC-MS Assay for the Simultaneous Quantification of 57 Oral Antitumor Drugs in Human Plasma” (Cancers, 2021).

Assay: Long-term stability in spiked pooled human plasma

| SMILES | Long-term stability, 1 month, -20°C Accuracy [%] (validation standard 2xLLOV) | Long-term stability, 1 month, -80°C Accuracy [%] (validation standard 2xLLOV) | Long-term stability, 2 month, -20°C Accuracy [%] (validation standard 2xLLOV) | Long-term stability, 2 month, -80°C Accuracy [%] (validation standard 2xLLOV) | Long-term stability, 3 month, -20°C Accuracy [%] (validation standard 2xLLOV) | Long-term stability, 3 month, -80°C Accuracy [%] (validation standard 2xLLOV) | Long-term stability, 6 weeks, 4°C, without daylight Accuracy [%] (validation standard 2xLLOV) | Long-term stability, 1 month, -20°C Accuracy [%] (validation standard LLOV) | Long-term stability, 1 month, -80°C Accuracy [%] (validation standard LLOV) | Long-term stability, 2 month, -20°C Accuracy [%] (validation standard LLOV) | Long-term stability, 2 month, -80°C Accuracy [%] (validation standard LLOV) | Long-term stability, 3 month, -20°C Accuracy [%] (validation standard LLOV) | Long-term stability, 3 month, -80°C Accuracy [%] (validation standard LLOV) | Long-term stability, 6 weeks, 4°C, without daylight Accuracy [%] (validation standard LLOV) | Long-term stability, 1 month, -20°C Accuracy [%] (validation standard MOV) | Long-term stability, 1 month, -80°C Accuracy [%] (validation standard MOV) | Long-term stability, 2 month, -20°C Accuracy [%] (validation standard MOV) | Long-term stability, 2 month, -80°C Accuracy [%] (validation standard MOV) | Long-term stability, 3 month, -20°C Accuracy [%] (validation standard MOV) | Long-term stability, 3 month, -80°C Accuracy [%] (validation standard MOV) | further results |
| --- | --- | --- | --- | --- | --- | --- | --- | --- | --- | --- | --- | --- | --- | --- | --- | --- | --- | --- | --- | --- | --- |
| CNC(=O)c1ccccc1Sc1ccc2c(/C=C/c3ccccn3)n[nH]c2c1 [Axitinib] | 86.8 | 86.83 | 87.6 | 94.2 | 92.9 | 100.1 | 66.5 | 87.8 | 83.07 | 110.1 | 90.5 | 107.3 | 102.5 | 49.2 | 89.8 | 87.50 | 87.7 | 92.2 | 95.9 | 90.5 | Long-term stability, 6 weeks, 4°C, without daylight Accuracy [%] (validation standard MOV): 100.5%; Long-term stability, 1 month, -20°C Accuracy [%] (validation standard ULOV): 92.0%; Long-term stability, 1 month, -80°C Accuracy [%] (validation standard ULOV): 87.13%; Long-term stability, 2 month, -20°C Accuracy [%] (validation standard ULOV): 88.8%; Long-term stability, 2 month, -80°C Accuracy [%] (validation standard ULOV): 91.3%; Long-term stability, 3 month, -20°C Accuracy [%] (validation standard ULOV): 86.8%; Long-term stability, 3 month, -80°C Accuracy [%] (validation standard ULOV): 91.9%; Long-term stability, 6 weeks, 4°C, without daylight Accuracy [%] (validation standard ULOV): 91.2% |
| Cn1cnc2c(F)c(Nc3ccc(Br)cc3F)c(C(=O)NOCCO)cc21 [Binimetinib] | 94.8 | 97.4 | 105.7 | 106.4 | 99.5 | 104.4 | 95.3 | 103.4 | 106.3 | 116.3 | 124.3 | 105.4 | 104.6 | 104.1 | 92.3 | 94.4 | 95.9 | 96.6 | 97.9 | 98.7 | Long-term stability, 6 weeks, 4°C, without daylight Accuracy [%] (validation standard MOV): 109.9%; Long-term stability, 1 month, -20°C Accuracy [%] (validation standard ULOV): 99.6%; Long-term stability, 1 month, -80°C Accuracy [%] (validation standard ULOV): 97.2%; Long-term stability, 2 month, -20°C Accuracy [%] (validation standard ULOV): 99.2%; Long-term stability, 2 month, -80°C Accuracy [%] (validation standard ULOV): 101.1%; Long-term stability, 3 month, -20°C Accuracy [%] (validation standard ULOV): 98.9%; Long-term stability, 3 month, -80°C Accuracy [%] (validation standard ULOV): 102.6%; Long-term stability, 6 weeks, 4°C, without daylight Accuracy [%] (validation standard ULOV): 99.7% |
| COc1cc(N2CCC(N3CCN(C)CC3)CC2)ccc1Nc1ncc(Cl)c(Nc2ccccc2P(C)(C)=O)n1 [Brigatinib] | 92.4 | 92.1 | 105.4 | 110.2 | 96.3 | 99.0 | 94.2 | 93.6 | 88.3 | 100.6 | 96.7 | 92.1 | 93.0 | 89.6 | 100.8 | 96.9 | 108.5 | 107.5 | 105.5 | 106.8 | Long-term stability, 6 weeks, 4°C, without daylight Accuracy [%] (validation standard MOV): 104.7%; Long-term stability, 1 month, -20°C Accuracy [%] (validation standard ULOV): 100.4%; Long-term stability, 1 month, -80°C Accuracy [%] (validation standard ULOV): 95.0%; Long-term stability, 2 month, -20°C Accuracy [%] (validation standard ULOV): 105.8%; Long-term stability, 2 month, -80°C Accuracy [%] (validation standard ULOV): 108.0%; Long-term stability, 3 month, -20°C Accuracy [%] (validation standard ULOV): 102.6%; Long-term stability, 3 month, -80°C Accuracy [%] (validation standard ULOV): 98.7%; Long-term stability, 6 weeks, 4°C, without daylight Accuracy [%] (validation standard ULOV): 98.6% |
